Where two headings read alike, the source gives them in different places.
System: IFNα-induced pSTAT5 (pY694) in CD3 positive cells of human whole blood
Test: IFNα-Induced STAT Phosphorylation in Human Whole Blood
Format: cell-based
Conditions: 1 h compound incubation, 1000 U/mL recombinant human IFNα A/D for 15 min, pSTAT5 in CD3 positive population, read-out: Human WB IFNα-Induced Stat Phosph. (IC50)
In short: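 Read-out is median fluorescence intensity of pSTAT5 (pY694) in the CD3-positive gate, by flow cytometry after fix/lyse and permeabilization. Before that, whole human blood anticoagulated with EDTA or ACD-A received compound for an hour and 1000 U/mL IFNα A/D for 15 min.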

Row | SMILES | IC50 (Homo sapiens) | IC50
1 | [2H]C([2H])([2H])NC(=O)c1cnc(Nc2cc(C(C)(C)O)ccn2)cc1Nc1cc(F)cc(-c2cnn(C)n2)c1OC [Example 454] | 0.19 µM | –
2 | [2H]C([2H])([2H])NC(=O)c1nnc(NC(=O)C2CC2)cc1Nc1cccc(-c2cc(C(=O)N3CCS(=O)(=O)CC3)n(C)n2)c1OC [Example 455, 6-(cyclopropanecarboxamido)-4-((3-(5-(1,1-dioxidothiomorpholine-4-carbonyl)-1-methyl-1H-pyrazol-3-yl)-2-methoxyphenyl)amino)-N-(methyl-d3)pyridazine-3-carboxamide] | 0.56 µM | –
3 | [2H]C([2H])([2H])NC(=O)c1cnc(NC(=O)C2CC2)cc1Nc1cc(F)cc(-c2cc(C(=O)N(C)C)n(C)n2)c1OC [Example 456] | 0.06 µM | –
4 | [2H]C([2H])([2H])NC(=O)c1nnc(NC(=O)C2CC2)cc1Nc1cccc(-c2cc(C(=O)NCC)n(C)n2)c1OC [Example 457] | 0.77 µM | –
5 | [2H]C([2H])([2H])NC(=O)c1nnc(NC(=O)C2CC2)cc1Nc1cccc(-c2cc(C(=O)NCCOC)n(C)n2)c1OC [Example 458] | 1.21 µM | –
6 | [2H]C([2H])([2H])NC(=O)c1nnc(NC(=O)C2CC2)cc1Nc1cccc(-c2cc(C(=O)N3CCOCC3)n(C)n2)c1OC [Example 459] | 0.08 µM | –
7 | [2H]C([2H])([2H])NC(=O)c1nnc(NC(=O)C2CC2)cc1Nc1cccc(-c2cc(C)nn2CCNC(=O)COC)c1OC [Example 461] | 0.22 µM | –
8 | [2H]C([2H])([2H])NC(=O)c1nnc(NC(=O)C2CC2)cc1Nc1cccc(-c2cc(C)n(CCN)n2)c1OC [Example 462] | 4.45 µM | –
9 | [2H]C([2H])([2H])NC(=O)c1nnc(NC(=O)C2CC2)cc1Nc1cccc(-c2cc(C)nn2CCN)c1OC [Example 463] | 0.8 µM | –
10 | [2H]C([2H])([2H])NC(=O)c1nnc(NC(=O)C2CC2)cc1Nc1cccc(-c2ccn(CCNC(=O)OC(C)(C)C)n2)c1OC [Example 464] | 1.11 µM | –
11 | [2H]C([2H])([2H])NC(=O)c1nnc(NC(=O)C2CC2)cc1Nc1cccc(-c2ccn(CCN)n2)c1OC [Example 465] | 0.13 µM | –
12 | [2H]C([2H])([2H])NC(=O)c1nnc(NC(=O)C2CC2)cc1Nc1cccc(-c2ccn(CCNS(C)(=O)=O)n2)c1OC [Example 466] | 0.42 µM | –
13 | [2H]C([2H])([2H])NC(=O)c1nnc(NC(=O)C2CC2)cc1Nc1cccc(-c2ccn(CCNC(=O)CO)n2)c1OC [Example 467] | 0.2 µM | –
14 | [2H]C([2H])([2H])NC(=O)c1nnc(NC(=O)C2CC2)cc1Nc1cccc(-c2ccn(CCNC(C)=O)n2)c1OC [Example 468] | 0.27 µM | –
15 | [2H]C([2H])([2H])NC(=O)c1nnc(NC(=O)C2CC2)cc1Nc1cccc(-c2ccn(CCNC(=O)COC)n2)c1OC [Example 469] | 0.2 µM | –
16 | [2H]C([2H])([2H])NC(=O)c1nnc(NC(=O)C2CC2)cc1Nc1cccc(-c2ccn(CCNC(=O)CC#N)n2)c1OC [Example 470] | 0.34 µM | –
17 | [2H]C([2H])([2H])NC(=O)c1nnc(NC(=O)C2CC2)cc1Nc1cccc(-c2ccn(CC(=O)NCCOC)n2)c1OC [Example 471] | 1.59 µM | –
18 | [2H]C([2H])([2H])NC(=O)c1cnc(NC(=O)C2CC2)cc1Nc1cccc(-c2ccn(CCNC(=O)COC)n2)c1OC [Example 472] | – | 0.29 µM
19 | [2H]C([2H])([2H])NC(=O)c1cnc(NC(=O)C2CC2)cc1Nc1cccc(-c2ccn(CCNC(=O)COC)n2)c1OC [Example 473] | – | > 10 µM
20 | [2H]C([2H])([2H])NC(=O)c1nnc(NC(=O)C2CC2)cc1Nc1cccc(-c2ccn(CCNC[C@H](O)CC)n2)c1OC [Example 474] | 3.56 µM | –
21 | [2H]C([2H])([2H])NC(=O)c1nnc(NC(=O)C2CC2)cc1Nc1cccc(-c2ccn(CCN(C[C@H](O)CC)C[C@@H](O)CC)n2)c1OC [Example 475] | 2.32 µM | –
22 | [2H]C([2H])([2H])NC(=O)c1nnc(NC(=O)C2CC2)cc1Nc1cccc(-c2cc(C(=O)N3CCN(CCO)CC3)n(C)n2)c1OC [Example 476] | 0.06 µM | –
23 | [2H]C([2H])([2H])NC(=O)c1nnc(NC(=O)C2CC2)cc1Nc1cccc(-c2cc(C(=O)NCCC#N)n(C)n2)c1OC [Example 477] | 1.1 µM | –
24 | [2H]C([2H])([2H])NC(=O)c1nnc(NC(=O)C2CC2)cc1Nc1cccc(-c2cc(C(=O)N3CCN(O)CC3)n(C)n2)c1OC [Example 478] | 0.15 µM | –
25 | [2H]C([2H])([2H])NC(=O)c1nnc(NC(=O)C2CC2)cc1Nc1cccc(-c2cc(C(=O)N3CCCCC3)n(C)n2)c1OC [Example 479] | 0.11 µM | –
26 | [2H]C([2H])([2H])NC(=O)c1nnc(NC(=O)C2CC2)cc1Nc1cccc(-c2cc(C(=O)N3CCN(C)CC3)n(C)n2)c1OC [Example 480] | 0.07 µM | –
27 | [2H]C([2H])([2H])NC(=O)c1nnc(NC(=O)C2CC2)cc1Nc1cccc(-c2cc(C(=O)N(C)CCOC)n(C)n2)c1OC [Example 481] | 0.39 µM | –
28 | [2H]C([2H])([2H])NC(=O)c1nnc(NC(=O)C2CC2)cc1Nc1cccc(-c2cc(C(=O)N3CCCC3)n(C)n2)c1OC [Example 482] | 0.15 µM | –

Row | SMILES | IC50 (Homo sapiens) | IC50
29 | [2H]C([2H])([2H])NC(=O)c1nnc(NC(=O)C2CC2)cc1Nc1cccc(-c2cc(C(=O)N(C)C)n(C)n2)c1OC [Example 483] | 0.06 µM | –
30 | [2H]C([2H])([2H])NC(=O)c1nnc(NC(=O)C2CC2)cc1Nc1cc(F)cc(-c2cc(C(=O)N3CCN(CCO)CC3)n(C)n2)c1OC [Example 484] | 0.1 µM | –
31 | [2H]C([2H])([2H])NC(=O)c1nnc(NC(=O)C2CC2)cc1Nc1cc(F)cc(-c2cc(C(=O)N3CCOCC3)n(C)n2)c1OC [Example 485] | 0.13 µM | –
32 | [2H]C([2H])([2H])NC(=O)c1cnc(NC(=O)C2CC2)cc1Nc1cccc(-c2cc(C(=O)N(C)C)n(C)n2)c1OC [Example 486] | 0.06 µM | –
33 | [2H]C([2H])([2H])NC(=O)c1nnc(NC(=O)C2CC2)cc1Nc1cccc(-c2cc(C(C)(C)O)n(C)n2)c1OC [Example 487] | 0.2 µM | –
34 | [2H]C([2H])([2H])NC(=O)c1cnc(NC(=O)C2CC2)cc1Nc1cccc(-c2cc(C(=O)N3CCS(=O)(=O)CC3)n(C)n2)c1OC [Example 488] | 0.53 µM | –
35 | [2H]C([2H])([2H])NC(=O)c1nnc(NC(=O)C2CC2)cc1Nc1cc(F)cc(-c2cc(C(C)(C)O)n(C)n2)c1OC [Example 489] | 0.29 µM | –
36 | [2H]C([2H])([2H])NC(=O)c1nnc(NC(=O)C2CC2)cc1Nc1cccc(-c2cc(C(=O)N3CC4CN(C)CC4C3)n(C)n2)c1OC (stereo not shown) [Example 491] | 0.26 µM | –
37 | [2H]C([2H])([2H])NC(=O)c1nnc(NC(=O)C2CC2)cc1Nc1cccc(-c2cc(C(=O)N3CCNCC3)n(C)n2)c1OC [Example 492] | 0.15 µM | –
38 | [2H]C([2H])([2H])NC(=O)c1nnc(NC(=O)C2CC2)cc1Nc1cccc(-c2cc(C(=O)N3CCN(C(C)=O)CC3)n(C)n2)c1OC [Example 493] | 0.04 µM | –
39 | [2H]C([2H])([2H])NC(=O)c1nnc(NC(=O)C2CC2)cc1Nc1cccc(-c2cc(C(=O)N3CCN(C(=O)OC)CC3)n(C)n2)c1OC [Example 494] | 0.25 µM | –
40 | [2H]C([2H])([2H])NC(=O)c1nnc(NC(=O)C2CC2)cc1Nc1cc(F)cc(-c2cc(C(=O)N(C)C)n(C)n2)c1OC [Example 495] | 0.06 µM | –
41 | [2H]C([2H])([2H])NC(=O)c1nnc(NC(=O)C2CC2)cc1Nc1cc(F)cc(-c2cc(C(=O)N3CC4CN(C)CC4C3)n(C)n2)c1OC (stereo not shown) [Example 496] | 0.25 µM | –
42 | [2H]C([2H])([2H])NC(=O)c1nnc(NC(=O)C2CC2)cc1Nc1cc(F)cc(-c2cc(C(=O)N3CCN(C)CC3)n(C)n2)c1OC [Example 497] | 0.11 µM | –
43 | [2H]C([2H])([2H])NC(=O)c1nnc(NC(=O)C2CC2)cc1Nc1cc(F)cc(-c2cc(C(=O)N3C[C@@H](C)O[C@@H](C)C3)n(C)n2)c1OC [Example 499] | 0.18 µM | –
44 | [2H]C([2H])([2H])NC(=O)c1nnc(NC(=O)C2CC2)cc1Nc1cc(F)cc(-c2cc(NC(C)=O)n(C)n2)c1OC [Example 500] | 0.37 µM | –
45 | [2H]C([2H])([2H])NC(=O)c1nnc(NC(=O)C2CC2)cc1Nc1cc(F)cc(-c2cc(NS(C)(=O)=O)n(C)n2)c1OC [Example 501] | 1.13 µM | –
46 | [2H]C([2H])([2H])NC(=O)c1nnc(NC(=O)C2CC2)cc1Nc1cccc(-c2cc(C(=O)N3CCN(S(C)(=O)=O)CC3)n(C)n2)c1OC [Example 502] | 0.15 µM | –
47 | [2H]C([2H])([2H])NC(=O)c1nnc(NC(=O)C2CC2)cc1Nc1cc(F)cc(-c2cc(C(=O)N3CCS(=O)(=O)CC3)n(C)n2)c1OC [Example 503] | 0.86 µM | –
48 | [2H]C([2H])([2H])NC(=O)c1nnc(NC(=O)C2CC2)cc1Nc1cccc(-c2cc(C(=O)NCC34CCN(CC3)CC4)n(C)n2)c1OC [Example 504] | > 10 µM | –
49 | [2H]C([2H])([2H])NC(=O)c1nnc(NC(=O)C2CC2)cc1Nc1cc(F)cc(-c2cc(C(=O)N(C)CC)n(C)n2)c1OC [Example 505] | 0.18 µM | –
50 | [2H]C([2H])([2H])NC(=O)c1nnc(NC(=O)C2CC2)cc1Nc1cc(F)cc(-c2cc(C(=O)N(C)C(C)C)n(C)n2)c1OC [Example 506] | 0.25 µM | –
51 | [2H]C([2H])([2H])NC(=O)c1nnc(NC(=O)C2CC2)cc1Nc1cc(F)cc(-c2cc(C(=O)N3CCC[C@H]3CO)n(C)n2)c1OC [Example 507] | 0.11 µM | –
52 | [2H]C([2H])([2H])NC(=O)c1nnc(NC(=O)C2CC2)cc1Nc1cc(F)cc(-c2cc(C(=O)N3CCC(CCO)CC3)n(C)n2)c1OC [Example 509] | 0.17 µM | –
53 | [2H]C([2H])([2H])NC(=O)c1nnc(NC(=O)C2CC2)cc1Nc1cc(F)cc(-c2cc(C(=O)N(C)CCCN(C)C)n(C)n2)c1OC [Example 510] | 0.46 µM | –
54 | [2H]C([2H])([2H])NC(=O)c1nnc(NC(=O)C2CC2)cc1Nc1cc(F)cc(-c2cc(C(=O)N3CCC(c4ccccc4)CC3)n(C)n2)c1OC [Example 511] | 0.32 µM | –
55 | [2H]C([2H])([2H])NC(=O)c1nnc(NC(=O)C2CC2)cc1Nc1cc(F)cc(-c2cc(C(=O)N3CCc4ccccc4C3)n(C)n2)c1OC [Example 512] | 2.56 µM | –
